The structures appear in SMILES notation. Inconclusive results are not listed. The source made the active and inactive calls. The rule behind the calls is not given here.

A short description of one test: LMP1-driven NF-kB reporter inhibition, dose response, cell-based, luciferase reporter, luminescence, dry powder, set 2 (AID 624376). As to conditions: LMP1-induced NF-kappaB luciferase reporter cells, luminescence; at 16 µM (top of the series).
Turning to `Cc1noc(C)c1S(=O)(=O)Nc1ccc2c(c1)C(=O)N([C@H](C)CO)C[C@H](C)[C@H](CN(C)Cc1ccc(C(F)(F)F)cc1)OCCCC[C@H](C)O2`, the activity change, negative = inhibition is -0.443% (inactive).

Staying with this test, now noted: LMP1-induced NF-kappaB luciferase reporter cells, luminescence; at 30 µM (top of the series).
Turning to `Cc1noc(C)c1S(=O)(=O)Nc1ccc2c(c1)C(=O)N([C@@H](C)CO)C[C@H](C)[C@H](CN(C)Cc1ccc(C(F)(F)F)cc1)OCCCC[C@@H](C)O2`, the activity change, negative = inhibition was 2.6% (inactive).
On the same count and under the same terms, the value for `C[C@H](NC(=O)C[C@@H]1C=C[C@H](NC(=O)Cc2ccccn2)[C@H](CO)O1)c1ccccc1` was -8.89% (inactive).

Staying with this test, now noted: LMP1-induced NF-kappaB luciferase reporter cells, luminescence; at 35 µM (top of the series).
On to `C[C@@H]1CN([C@H](C)CO)C(=O)Cc2cc(NC(=O)Cc3ccccc3)ccc2O[C@H]1CN(C)Cc1ccc(C(F)(F)F)cc1`, for which the activity change, negative = inhibition is -5.26% (inactive).
`C[C@@H]1CN([C@H](C)CO)C(=O)c2c(c3ccccc3n2C)-c2ccccc2CO[C@H]1CN(C)C(=O)Nc1ccc(F)cc1`: the activity change, negative = inhibition is -0.608% (inactive).
`Cc1noc(C)c1S(=O)(=O)Nc1ccc2c(c1)C(=O)N([C@@H](C)CO)C[C@H](C)[C@H](CN(C)Cc1ccc(C(F)(F)F)cc1)OCCCC[C@H](C)O2`: the activity change, negative = inhibition is -10.2% (inactive).
In the case of `C[C@H](NC(=O)C[C@@H]1C=C[C@@H](NC(=O)Cc2ccccn2)[C@@H](CO)O1)c1ccccc1`, the activity change, negative = inhibition was 2.64% (inactive).
The same measure, in the same setting: the figure for `Cc1noc(C)c1S(=O)(=O)Nc1ccc2c(c1)C(=O)N([C@@H](C)CO)C[C@H](C)[C@@H](CN(C)Cc1ccc(C(F)(F)F)cc1)OCCCC[C@H](C)O2` is -1.9% (inactive); for `C[C@H](NC(=O)C[C@H]1C=C[C@H](NC(=O)Cc2ccccn2)[C@@H](CO)O1)c1ccccc1` it is 10.7% (inactive); for `C[C@@H](NC(=O)C[C@H]1C=C[C@@H](NC(=O)Cc2ccccn2)[C@@H](CO)O1)c1ccccc1` it is -14% (inactive).
For the molecule `CS(=O)(=O)Nc1ccc2c(c1)[C@@H]1C[C@H](CC(=O)NCC3CC3)O[C@H](CO)[C@@H]1O2`, the activity change, negative = inhibition was -9.8% (inactive).
Still for that read-out and setting: the figure for `C[C@H](NC(=O)C[C@H]1C=C[C@@H](NC(=O)Cc2ccccn2)[C@@H](CO)O1)c1ccccc1` is -0.671% (inactive).
The same measure, in the same setting: the figure for `Cc1noc(C)c1S(=O)(=O)Nc1ccc2c(c1)C(=O)N([C@@H](C)CO)C[C@@H](C)[C@@H](CN(C)Cc1ccc(C(F)(F)F)cc1)OCCCC[C@H](C)O2` is 13% (inactive); for `C[C@@H]1CN([C@H](C)CO)C(=O)c2c(c3ccccc3n2C)-c2ccccc2CO[C@@H]1CN(C)C(=O)Nc1ccc(F)cc1` it is 3.49% (inactive); for `Cc1noc(C)c1S(=O)(=O)Nc1ccc2c(c1)C(=O)N([C@H](C)CO)C[C@@H](C)[C@H](CN(C)Cc1ccc(C(F)(F)F)cc1)OCCCC[C@H](C)O2` it is -0.786% (inactive).
Turning to `Cc1noc(C)c1S(=O)(=O)Nc1ccc2c(c1)C(=O)N([C@H](C)CO)C[C@H](C)[C@@H](CN(C)Cc1ccc(C(F)(F)F)cc1)OCCCC[C@@H](C)O2`, the activity change, negative = inhibition was -11.7% (inactive).
For `Cc1noc(C)c1S(=O)(=O)Nc1ccc2c(c1)C(=O)N([C@@H](C)CO)C[C@@H](C)[C@@H](CN(C)Cc1ccc(C(F)(F)F)cc1)OCCCC[C@@H](C)O2`, the activity change, negative = inhibition is -7.77% (inactive).
`COC(=O)C[C@@H]1C[C@@H]2c3cc(NC(=O)CN(C)C)ccc3O[C@@H]2[C@@H](CO)O1`: the activity change, negative = inhibition is -4.49% (inactive).
On to `C[C@H](CO)N1C[C@H](C)[C@@H](CN(C)Cc2ccc(C(F)(F)F)cc2)Oc2ccc(NC(=O)Cc3ccccc3)cc2CC1=O`, for which the activity change, negative = inhibition was 17.6% (inactive).
As to `C[C@H](NC(=O)C[C@@H]1C=C[C@H](NC(=O)Cc2ccccn2)[C@@H](CO)O1)c1ccccc1`, the activity change, negative = inhibition was 5.95% (inactive).
Same read-out and setting: the figure for `C[C@H](NC(=O)C[C@@H]1C=C[C@@H](NC(=O)Cc2ccccn2)[C@H](CO)O1)c1ccccc1` is 4.21% (inactive); for `O=C(C[C@@H]1C[C@@H]2c3cc(NS(=O)(=O)c4ccc(F)cc4)ccc3O[C@@H]2[C@H](CO)O1)NC1CCCCC1` it is 7.3% (inactive); for `C[C@H](NC(=O)C[C@H]1C=C[C@H](NC(=O)Cc2ccccn2)[C@H](CO)O1)c1ccccc1` it is 3.9% (inactive).
On to `C[C@@H](NC(=O)C[C@H]1C[C@@H]2c3cc(NC(=O)c4cccnc4)ccc3O[C@@H]2[C@@H](CO)O1)c1ccccc1`, for which the activity change, negative = inhibition is 6.76% (inactive).
With `C[C@H]1CN([C@@H](C)CO)C(=O)Cc2cc(NC(=O)Cc3ccccc3)ccc2O[C@H]1CN(C)Cc1ccc(C(F)(F)F)cc1`, the activity change, negative = inhibition was 18.5% (inactive).
For the molecule `O=C(Cc1ccccn1)NCC[C@@H]1CC[C@@H](NC(=O)Nc2ccc(Cl)cc2)[C@@H](CO)O1`, the activity change, negative = inhibition is -0.581% (inactive).
On to `O=C(C[C@@H]1C[C@H]2c3cc(NS(=O)(=O)c4ccc(F)cc4)ccc3O[C@H]2[C@@H](CO)O1)NC1CCCCC1`, for which the activity change, negative = inhibition is 2.38% (inactive).
Take `O=C(Cc1ccccn1)NCC[C@H]1CC[C@H](NC(=O)Nc2ccc(Cl)cc2)[C@@H](CO)O1`: the activity change, negative = inhibition is 4.16% (inactive).
Turning to `COc1ccccc1CNC(=O)C[C@H]1C[C@@H]2c3cc(NC(=O)CN(C)C)ccc3O[C@@H]2[C@@H](CO)O1`, the activity change, negative = inhibition is -6.3% (inactive).
Take `Cc1noc(C)c1S(=O)(=O)Nc1ccc2c(c1)C(=O)N([C@H](C)CO)C[C@@H](C)[C@@H](CN(C)Cc1ccc(C(F)(F)F)cc1)OCCCC[C@H](C)O2`: the activity change, negative = inhibition is 16.2% (inactive).
`C[C@H]1CN([C@@H](C)CO)C(=O)c2c(c3ccccc3n2C)-c2ccccc2CO[C@H]1CN(C)C(=O)Nc1ccc(F)cc1`: the activity change, negative = inhibition was 1.49% (inactive).
For the molecule `O=C(Cc1ccccn1)NCC[C@@H]1CC[C@@H](NC(=O)Nc2ccc(Cl)cc2)[C@H](CO)O1`, the activity change, negative = inhibition is 0.177% (inactive).
With `C[C@@H]1CN([C@@H](C)CO)C(=O)c2c(c3ccccc3n2C)-c2ccccc2CO[C@H]1CN(C)C(=O)Nc1ccc(F)cc1`, the activity change, negative = inhibition was -7.17% (inactive).
Consider `C[C@@H](NC(=O)C[C@H]1C=C[C@H](NC(=O)Cc2ccccn2)[C@H](CO)O1)c1ccccc1`, for which the activity change, negative = inhibition is -2.05% (inactive).
The same measure, in the same setting: the figure for `C[C@@H]1CN([C@@H](C)CO)C(=O)c2c(c3ccccc3n2C)-c2ccccc2CO[C@@H]1CN(C)C(=O)Nc1ccc(F)cc1` is 6.54% (inactive); for `CC(C)(C)[S@@](=O)N1Cc2cc(C(=O)NCCc3ccncc3)nc(-c3cccc(-c4cccnc4)c3)c2[C@H]1CCO` it is -10.1% (inactive).
Still for that read-out and setting: the figure for `Cc1noc(C)c1S(=O)(=O)Nc1ccc2c(c1)C(=O)N([C@H](C)CO)C[C@@H](C)[C@H](CN(C)Cc1ccc(C(F)(F)F)cc1)OCCCC[C@@H](C)O2` is -6% (inactive); for `COc1cccc(S(=O)(=O)N(C)C[C@@H]2Oc3cc(C4=CCCCC4)ccc3S(=O)(=O)N([C@@H](C)CO)C[C@H]2C)c1` it is 4.81% (inactive).
As for `Cc1noc(C)c1S(=O)(=O)Nc1ccc2c(c1)C(=O)N([C@H](C)CO)C[C@@H](C)[C@@H](CN(C)Cc1ccc(C(F)(F)F)cc1)OCCCC[C@@H](C)O2`, the activity change, negative = inhibition was -6.08% (inactive).

Values taken from PubChem BioAssay AID624376 (Broad Institute, 2012).
